Source: patent publication US20100298302A1, “NOVEL PROTEIN KINASE MODULATORS” (priority 2009, published 2010)
Where two headings read alike, the source gives them in different places.

What was measured:
recombinant PIM-1 = recombinant PIM-1 (Homo sapiens, UniProt P11309); test: PIM-1 kinase assay; format: biochemical; details: for inhibition at 0.5 µM: 500 nM compound, read-out: PIM1: % inh 500 nM
Procedure: The following procedure was used to assay the PIM-1 kinase activity of compounds of the invention. Other methods for assaying PIM-1 and other PIM kinases, as well as methods to assay for activity against various kinases known in the art.
In a final reaction volume of 50 ul, recombinant PIM-1 (1 ng) was incubated with 12 mM MOPS pH 7.0, 0.4 mM EDTA, glycerol 1%, brij 35 0.002%, 2-mercaptoethanol 0.02%, BSA 0.2 mg/ml, 100 uM KKRNRTLTK, 10 mM MgAcetate, 15 uM ATP, [γ-^33P-ATP] (specific activity approx. 500 cpm/pmol), DMSO 4% and test inhibitor compound at the required concentration. The reaction was initiated by the addition of the Magnesium ATP mixture. After 40 min incubation at 23° C., the reactions were quenched by the addition of 100 ul 0.75% Phosphoric acid, and the labeled peptide collected by filtration through a phosphocellulose filter plate. The plate was washed 4 times with 0.075% phosphoric acid (100 ul per well) and then, after the addition of scintillation fluid (20 ul per well), the counts were measured by a scintillation counter.

[1] = system: K-562 human chronic myelogenous leukemia (CML) cells; test: Alamar Blue cell proliferation assay, K-562; format: cell-based
Procedure: (§1) A representative cell-proliferation assay protocol using Alamar Blue dye (stored at 4° C., use 20 ul per well) is described hereafter.
(§2) a. Split and trypsinize cells.
(§3) b. Count cells using hemocytometer.
(§4) c. Plate 4,000-5,000 cells per well in 100 μl of medium and seed into a 96-well plate according to the following plate layout. Add cell culture medium only to wells B10 to B12. Wells B1 to B9 have cells but no compound added.
(§5) d. Add 100 μl of 2× drug dilution to each well in a concentration shown in the plate layout above. At the same time, add 100 μl of media into the control wells (wells B10 to B12). Total volume is 200 μl/well.
(§6) e. Incubate four (4) days at 37° C., 5% CO2 in a humidified incubator.
(§7) f. Add 20 μl Alamar Blue reagent to each well.
(§8) g. Incubate for four (4) hours at 37° C., 5% CO2 in a humidified incubator.
(§9) h. Record fluorescence at an excitation wavelength of 544 nm and emission wavelength of 590 nm using a microplate reader.
(§10) In the assays, cells are cultured with a test compound for approximately four days, the dye is then added to the cells and fluorescence of […] dye is detected after approximately four hours. Different types of cells can be utilized in the assays (e.g., HCT-116 human colorectal carcinoma cells, PC-3 human prostatic cancer cells, MDA-MB231 human breast cancer cells, K-562 human chronic myelogenous leukemia (CML) cells, MiaPaca human pancreatic carcinoma cells, MV-4 human acute myeloid leukemia cells, and BxPC3 human pancreatic adenocarcinoma cells).

MV-4-11 = test: Alamar Blue cell proliferation assay, MV-4-11; format: cell-based; details: Homo sapiens, MV4-11
Procedure: as §1, §2, §3, §4, §5, §6, §7, §8, §9, §10

[2] = system: MDA-MB231 human breast cancer cells; test: Alamar Blue cell proliferation assay, MDA-MB231; format: cell-based; details: MDA-MB-231, read-out: MDAMB231 IC50
Procedure: as §1, §2, §3, §4, §5, §6, §7, §8, §9, §10

[3] = system: MiaPaca human pancreatic carcinoma cells; test: Alamar Blue cell proliferation assay, MiaPaCa; format: cell-based; details: MIA PaCa-2
Procedure: as §1, §2, §3, §4, §5, §6, §7, §8, §9, §10

[4] = system: PC-3 human prostatic cancer cells; test: Alamar Blue cell proliferation assay, PC3; format: cell-based
Procedure: as §1, §2, §3, §4, §5, §6, §7, §8, §9, §10

recombinant human CK2 = biological target: T1, recombinant human CK2 (Homo sapiens, UniProt P68400); test: cell-free CK2 assay; format: biochemical
T1 construct: purchased Upstate
T1 sequence (P68400 whole entry): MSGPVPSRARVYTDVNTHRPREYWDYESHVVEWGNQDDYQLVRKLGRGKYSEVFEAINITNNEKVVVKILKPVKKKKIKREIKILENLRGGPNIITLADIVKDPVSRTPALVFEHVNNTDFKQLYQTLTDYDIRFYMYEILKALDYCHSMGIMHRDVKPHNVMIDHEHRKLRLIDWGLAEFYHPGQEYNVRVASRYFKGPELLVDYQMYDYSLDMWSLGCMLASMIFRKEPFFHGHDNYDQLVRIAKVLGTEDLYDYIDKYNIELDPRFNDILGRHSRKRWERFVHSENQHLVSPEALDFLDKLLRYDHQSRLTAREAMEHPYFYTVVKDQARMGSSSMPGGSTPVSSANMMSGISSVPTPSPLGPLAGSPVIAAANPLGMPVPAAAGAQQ
T1 sequence (P67870 whole entry partner): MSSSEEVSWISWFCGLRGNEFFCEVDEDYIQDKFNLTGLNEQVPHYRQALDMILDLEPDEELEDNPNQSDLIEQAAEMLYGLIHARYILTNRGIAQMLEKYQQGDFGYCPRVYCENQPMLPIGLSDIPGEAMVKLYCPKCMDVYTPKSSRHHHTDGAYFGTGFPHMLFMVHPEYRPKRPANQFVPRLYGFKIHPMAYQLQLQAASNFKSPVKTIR
Procedure: Modulatory activity of compounds described herein was assessed in vitro in cell-free CK2 assays by the following method.
Test compounds in aqueous solution were added at a volume of 10 microliters, to a reaction mixture comprising 10 microliters Assay Dilution Buffer (ADB; 20 mM MOPS, pH 7.2, 25 mM beta-glycerolphosphate, 5 mM EGTA, 1 mM sodium orthovanadate and 1 mM dithiothreitol), 10 microliters of substrate peptide (RRRDDDSDDD, dissolved in ADB at a concentration of 1 mM), 10 microliters of recombinant human CK2 (25 ng dissolved in ADB; Upstate). Reactions were initiated by the addition of 10 microliters of ATP Solution (90% 75 mM MgCl2, 75 micromolar ATP dissolved in ADB; 10% [γ-^33P]ATP (stock 1 mCi/100 μl; 3000 Ci/mmol (Perkin Elmer) and maintained for 10 minutes at 30 degrees C. The reactions were quenched with 100 microliters of 0.75% phosphoric acid, then transferred to and filtered through a phosphocellulose filter plate (Millipore). After washing each well 5 times with 0.75% phosphoric acid, the plate was dried under vacuum for 5 min and, following the addition of 15 ul of scintilation fluid to each well, the residual radioactivity was measured using a Wallac luminescence counter.

recombinant human PIM2 = recombinant human PIM2 (Homo sapiens, UniProt Q9P1W9); test: PIM-2 kinase assay; format: biochemical
recombinant human PIM2, sequence (Q9P1W9 whole entry): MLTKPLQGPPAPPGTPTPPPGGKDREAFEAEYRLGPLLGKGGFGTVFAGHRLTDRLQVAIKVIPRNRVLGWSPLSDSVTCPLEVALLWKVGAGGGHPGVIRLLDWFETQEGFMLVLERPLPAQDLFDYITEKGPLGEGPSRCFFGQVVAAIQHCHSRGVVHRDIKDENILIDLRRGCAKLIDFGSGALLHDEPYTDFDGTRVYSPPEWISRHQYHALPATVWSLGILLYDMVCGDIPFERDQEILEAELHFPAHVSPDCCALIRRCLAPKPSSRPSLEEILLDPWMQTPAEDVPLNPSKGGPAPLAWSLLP
Procedure: Test compounds dissolved and diluted in DMSO (2 μl) were added to a reaction mixture comprising 10 μl of 5× Reaction Buffer (40 mM MOPS pH 7.0, 5 mM EDTA), 10 μl of recombinant human PIM2 solution (4 ng PIM-2 dissolved in dilution buffer (20 mM MOPS pH 7.0; EDTA 1 mM; 5% Glycerol; 0.01% Brij 35; […]; […] 2-mercaptoethanol; 1 mg/ml BSA)) and 8 ul of water. Reactions were initiated by the addition of 10 ul of ATP Solution ([…] (15 mM MgCl2; 75 uM ATP) 1% ([γ-33P]ATP: Stock 1 mCi/100 μl; 3000 Ci/mmol (Perkin Elmer)) and 10 ul of substrate peptide solution (RSRSSYPAGT, dissolved in water at a concentration of 1 mM), Reactions were maintained for 10 min at 30° C. The reactions were quenched with 100 ul of 0.75% Phosphoric acid, then transferred to and filtered through a Phosphocellulose filter plate (Millipore, MSPH-N6B-50). After washing each well 4 times with 0.75% Phosphoric acid, scintillation fluid (20 uL) was added to each well and the residual radioactivity was measured using a Wallac luminescence counter.

FLT3 = biological target: T2, FLT3 (Homo sapiens, UniProt P36888); test: FLT3 inhibition; format: biochemical
T2 sequence (P36888 27-993): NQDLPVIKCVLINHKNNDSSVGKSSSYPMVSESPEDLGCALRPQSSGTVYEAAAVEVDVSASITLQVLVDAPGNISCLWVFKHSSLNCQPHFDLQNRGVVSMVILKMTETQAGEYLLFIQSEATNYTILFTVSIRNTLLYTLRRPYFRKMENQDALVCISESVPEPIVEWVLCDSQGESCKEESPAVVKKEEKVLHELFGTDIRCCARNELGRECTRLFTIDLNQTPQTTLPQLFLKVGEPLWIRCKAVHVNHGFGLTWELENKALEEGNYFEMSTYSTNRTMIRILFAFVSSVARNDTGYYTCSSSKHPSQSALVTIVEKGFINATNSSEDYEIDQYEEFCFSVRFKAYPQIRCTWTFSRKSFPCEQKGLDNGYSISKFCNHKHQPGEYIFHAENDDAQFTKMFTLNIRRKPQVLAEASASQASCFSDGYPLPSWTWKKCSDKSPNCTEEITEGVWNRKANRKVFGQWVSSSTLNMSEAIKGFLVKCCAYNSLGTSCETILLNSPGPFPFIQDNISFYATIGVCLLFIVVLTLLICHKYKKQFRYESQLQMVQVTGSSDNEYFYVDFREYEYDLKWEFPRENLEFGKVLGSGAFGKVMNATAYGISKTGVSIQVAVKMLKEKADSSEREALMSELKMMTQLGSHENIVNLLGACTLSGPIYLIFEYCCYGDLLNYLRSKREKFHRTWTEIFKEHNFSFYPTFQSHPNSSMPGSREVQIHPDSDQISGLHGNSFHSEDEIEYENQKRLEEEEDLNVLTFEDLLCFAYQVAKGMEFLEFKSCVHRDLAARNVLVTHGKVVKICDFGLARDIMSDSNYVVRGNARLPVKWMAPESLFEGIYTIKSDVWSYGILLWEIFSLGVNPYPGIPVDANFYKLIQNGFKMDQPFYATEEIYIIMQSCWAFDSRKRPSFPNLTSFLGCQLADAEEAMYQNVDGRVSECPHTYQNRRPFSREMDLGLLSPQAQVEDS

[5] = system: BxPC3 human pancreatic adenocarcinoma cells; test: Alamar Blue cell proliferation assay, BxPC3; format: cell-based; details: BXPC-3
Procedure: as §1, §2, §3, §4, §5, §6, §7, §8, §9, §10

MDA-MB45 = test: Alamar Blue cell proliferation assay, MDA-MB45; format: cell-based
Procedure: as §1, §2, §3, §4, §5, §6, §7, §8, §9, §10

SUM-149PT = test: Alamar Blue cell proliferation assay, SUM-149PT; format: cell-based; details: Homo sapiens, SUM149PT
Procedure: as §1, §2, §3, §4, §5, §6, §7, §8, §9, §10

[6] = system: leukemic cells from AML patients; details: cited from earlier work
MV-4-11 (AML) xenograft = MV-4-11 (AML) xenograft model; cited from earlier work
MOLM-13 (AML) xenograft = MOLM-13 (AML) xenograft model; cited from earlier work
[7] = 15 μM ATP, read-out: PIM1: IC50 (15 μM ATP)

recombinant PIM-1, sequence (P11309 whole entry): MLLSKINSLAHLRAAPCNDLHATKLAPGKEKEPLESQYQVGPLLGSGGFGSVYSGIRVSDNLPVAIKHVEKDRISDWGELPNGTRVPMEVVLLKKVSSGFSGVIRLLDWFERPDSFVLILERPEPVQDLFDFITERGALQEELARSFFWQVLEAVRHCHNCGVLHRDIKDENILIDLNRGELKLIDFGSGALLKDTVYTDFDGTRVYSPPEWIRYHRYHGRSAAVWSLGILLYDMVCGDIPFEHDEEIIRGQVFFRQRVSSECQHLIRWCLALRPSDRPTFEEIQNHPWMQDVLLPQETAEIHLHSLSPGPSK

inhibition at 0.5 µM (recombinant PIM-1) [%]	IC50 (recombinant PIM-1; [7]) [µM]	IC50 ([1]; K562, Table 4) [µM]	IC50 (MV-4-11; Table 4) [µM]	IC50 [2] [µM]	IC50 [3] [µM]	IC50 (recombinant PIM-1; Table 5, read-out: PIM1 IC50) [µM]	IC50 (recombinant human CK2) [µM]	IC50 (recombinant human PIM2) [µM]	IC50 ([1]; K562, Table 5) [µM]	IC50 (MV-4-11; Table 5) [µM]	IC50 [5] [µM]	IC50 (MDA-MB45) [µM]	Structure (SMILES)	IC50 (SUM-149PT) [µM]	also measured
57.1	0.576	> 10	> 10	> 10	> 10								Clc1ccc(Nc2nc3cc(-c4nnn[nH]4)ccc3n3cccc23)cc1		
91.4	0.071	10.7	6.91	12	> 10								O=C(O)c1ccc2c(c1)nc(Nc1ccc(F)c(Cl)c1)c1cccn12		IC50 [4]: > 10 µM
52.9	0.419	> 10	> 10	> 10	> 10								O=C(O)c1ccc2c(c1)nc(NCC(F)(F)F)c1cccn12		IC50 [4]: > 30 µM
						< 0.1	< 0.1	< 0.1	> 10	< 5	< 10	< 5	Clc1ccccc1Nc1nc2c(-c3nnc[nH]3)cccc2n2cccc12	< 5	IC50 (FLT3): > 10 µM

The next lines start with the molecule.

Structure (SMILES)	inhibition at 0.5 µM (recombinant PIM-1) [%]	IC50 (recombinant PIM-1; [7]) [µM]	IC50 ([1]; K562, Table 4) [µM]	IC50 (MV-4-11; Table 4) [µM]	IC50 [2] [µM]	IC50 [3] [µM]	IC50 (recombinant PIM-1; Table 5, read-out: PIM1 IC50) [µM]	IC50 (recombinant human CK2) [µM]	IC50 (recombinant human PIM2) [µM]	IC50 ([1]; K562, Table 5) [µM]	IC50 (MV-4-11; Table 5) [µM]	IC50 [5] [µM]	IC50 (MDA-MB45) [µM]	IC50 (SUM-149PT) [µM]	also measured
Fc1ccc(Nc2nc3cc(-c4nnn[nH]4)ccc3n3cccc23)cc1Cl	50.5	0.504	> 10	1.21	> 10	> 10									
Fc1ccccc1Nc1nc2c(-c3nnc[nH]3)cccc2n2cccc12							< 0.1	< 0.1	< 0.1	< 10	< 5	> 30	28.4	22.8	
Fc1ccc(Nc2nc3c(-c4nnc[nH]4)cccc3n3cccc23)c(F)c1							< 0.1	< 0.1	< 0.1	< 10	< 5	10.2	15.7	23.3	
Clc1cccc(Nc2nc3c(-c4nnc[nH]4)cccc3n3cccc23)c1							< 0.1	< 0.1	< 0.1	> 10	< 5	≥ 30	16	21	
Oc1cccc(Nc2nc3c(-c4nnc[nH]4)cccc3n3cccc23)c1							< 0.1	< 1	< 0.1	> 10	< 5	≥ 30	28	> 30	
O=C(NC1CC1)c1cccc2c1nc(Nc1ccccc1F)c1cccn12							< 0.1	< 1	< 1	> 10	< 10	> 30	12	< 10	
CN(C)C[C@@H]1CCn2cc(c3ccccc32)C2=C(C(=O)NC2=O)c2cn(c3ccccc23)CCO1 [Ly5333′531]															effect on cell growth and cell death [6]: suppressed cell growth and induced cell death
CN1CCC(CNc2ccc3ncc(-c4cccc(OC(F)(F)F)c4)n3n2)CC1 [SGI-1776]															tumor regression (MV-4-11 (AML) xenograft): significant tumor regression; tumor regression (MOLM-13 (AML) xenograft): significant tumor regression
